Consider 21 compounds from ChEMBL document CHEMBL5036327, “Systematic Optimization of Potent and Orally Bioavailable Purine Scaffold as a Dual Inhibitor of Toll-Like Receptors 7 and 9” (J Med Chem, 2021).

Test [1] addresses T1, Toll-like receptor 9 (Homo sapiens, UniProt Q9NR96).
T1 sequence (Q9NR96 whole entry): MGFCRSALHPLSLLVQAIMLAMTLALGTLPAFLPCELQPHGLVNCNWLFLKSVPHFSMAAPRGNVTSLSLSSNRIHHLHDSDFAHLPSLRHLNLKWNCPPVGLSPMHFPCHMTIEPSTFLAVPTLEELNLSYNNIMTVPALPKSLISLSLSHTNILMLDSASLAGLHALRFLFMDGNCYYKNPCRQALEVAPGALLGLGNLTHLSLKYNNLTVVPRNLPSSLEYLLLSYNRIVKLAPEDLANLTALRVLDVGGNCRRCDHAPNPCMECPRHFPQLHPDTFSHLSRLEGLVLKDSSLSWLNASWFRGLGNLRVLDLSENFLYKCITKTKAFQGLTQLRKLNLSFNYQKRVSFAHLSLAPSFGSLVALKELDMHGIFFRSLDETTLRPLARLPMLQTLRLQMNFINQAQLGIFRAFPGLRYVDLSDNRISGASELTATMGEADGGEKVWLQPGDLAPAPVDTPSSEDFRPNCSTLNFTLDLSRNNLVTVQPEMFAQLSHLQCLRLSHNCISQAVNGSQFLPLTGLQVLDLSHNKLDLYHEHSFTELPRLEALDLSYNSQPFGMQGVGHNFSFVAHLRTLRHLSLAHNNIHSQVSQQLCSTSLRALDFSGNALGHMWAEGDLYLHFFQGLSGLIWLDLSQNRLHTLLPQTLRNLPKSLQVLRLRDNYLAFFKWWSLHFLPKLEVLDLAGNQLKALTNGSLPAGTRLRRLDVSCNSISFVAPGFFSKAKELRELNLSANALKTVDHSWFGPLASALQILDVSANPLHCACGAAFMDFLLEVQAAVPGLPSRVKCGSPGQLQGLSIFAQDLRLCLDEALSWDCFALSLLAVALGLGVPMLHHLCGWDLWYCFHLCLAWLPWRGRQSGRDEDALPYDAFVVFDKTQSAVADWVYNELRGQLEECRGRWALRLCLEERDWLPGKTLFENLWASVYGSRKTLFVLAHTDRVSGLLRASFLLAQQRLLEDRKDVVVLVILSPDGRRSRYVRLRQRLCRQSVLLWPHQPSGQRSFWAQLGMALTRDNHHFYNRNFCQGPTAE
Kind of test: Antagonist activity at human TLR9 expressed in […] cells assessed as inhibition of CpGB-induced NFkappaB activation measured after overnight incubation by SEAP-based spectrophotometry assay. The class given is cell-based, HEK293.

Test [2] has as its target T2, Toll-like receptor 7 (Homo sapiens, UniProt Q9NYK1).
T2 sequence (Q9NYK1 whole entry): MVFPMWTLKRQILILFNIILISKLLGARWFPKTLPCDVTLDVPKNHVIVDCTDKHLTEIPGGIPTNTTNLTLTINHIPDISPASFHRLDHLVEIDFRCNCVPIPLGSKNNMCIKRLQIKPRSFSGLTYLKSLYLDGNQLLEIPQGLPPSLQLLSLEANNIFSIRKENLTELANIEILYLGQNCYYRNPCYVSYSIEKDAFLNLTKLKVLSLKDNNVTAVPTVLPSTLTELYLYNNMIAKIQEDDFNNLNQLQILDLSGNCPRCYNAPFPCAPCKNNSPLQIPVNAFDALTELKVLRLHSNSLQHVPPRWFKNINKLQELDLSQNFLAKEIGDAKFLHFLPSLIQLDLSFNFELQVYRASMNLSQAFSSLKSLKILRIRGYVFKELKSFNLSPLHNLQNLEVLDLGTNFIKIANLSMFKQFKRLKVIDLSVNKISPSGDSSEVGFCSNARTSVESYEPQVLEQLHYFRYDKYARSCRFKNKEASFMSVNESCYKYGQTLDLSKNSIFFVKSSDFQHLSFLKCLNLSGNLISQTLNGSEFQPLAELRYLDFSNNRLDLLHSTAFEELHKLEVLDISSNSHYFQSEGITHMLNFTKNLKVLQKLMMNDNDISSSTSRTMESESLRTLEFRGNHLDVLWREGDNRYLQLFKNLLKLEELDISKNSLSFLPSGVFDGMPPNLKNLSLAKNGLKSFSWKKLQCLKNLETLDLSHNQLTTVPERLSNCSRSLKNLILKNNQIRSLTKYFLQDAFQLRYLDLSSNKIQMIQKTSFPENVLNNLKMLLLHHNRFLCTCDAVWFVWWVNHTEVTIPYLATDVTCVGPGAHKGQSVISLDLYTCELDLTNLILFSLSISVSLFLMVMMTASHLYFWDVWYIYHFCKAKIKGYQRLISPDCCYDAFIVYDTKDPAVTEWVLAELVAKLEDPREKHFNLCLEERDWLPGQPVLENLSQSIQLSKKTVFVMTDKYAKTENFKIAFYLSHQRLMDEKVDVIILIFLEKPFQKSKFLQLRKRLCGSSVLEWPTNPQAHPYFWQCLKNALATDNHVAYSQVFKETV
Kind of test: Antagonist activity at human TLR7 expressed in HEK-blue-HTLR7 cells assessed as inhibition of CL264-induced NFkappaB activation measured after overnight incubation by SEAP-based spectrophotometry assay.

As a reminder, the IC50 is the concentration needed to halve the response being measured. On to `CCN1CCN(CCCn2cnc3c(N4CCN(C(=O)c5ccccc5)CC4)nc(NCc4ccc(F)cc4)nc32)CC1`, for which the half-maximal inhibitory concentration (IC50) in test [1] and in test [2] was > 30 µM each time. `CCN1CCN(c2nc(N)nc3c2ncn3CCCN2CCCC2)CC1`: the IC50 in test [1] came out at 0.19 µM; in test [2], 4.94 µM. For `CCN1CCN(CCCn2cnc3c(N4CCN(C5CCCC5)CC4)nc(N)nc32)CC1`, the IC50 in test [1] is 0.28 µM; in test [2], 13.2 µM. `CCN1CCN(CCCn2cnc3c(N4CCN(C(=O)c5ccccc5)CC4)nc(NCc4ccc(N(CC)CC)cc4)nc32)CC1`: the IC50 in test [1] was 3.4 µM; in test [2] it was 8.4 µM. The like results for `CCN1CCN(CCCn2cnc3c(N4CCN(CC)CC4)nc(N4CCCC4)nc32)CC1` were, in that order, 0.5 µM and 8.49 µM.

As for `CCN1CCN(CCCn2cnc3c(N4CCN(C5CCCC5)CC4)nc(NCc4ccc(N(CC)CC)cc4)nc32)CC1`, the concentration for half-maximal inhibition (IC50) was determined as 0.15 µM in test [1] and 8.13 µM in test [2]. Take `CCN1CCN(CCCn2cnc3c(N4CCN(CC)CC4)nc(N)nc32)CC1`: the half-inhibitory concentration (IC50) was determined as 0.26 µM in test [1] and 16.2 µM in test [2]. Consider `CCN1CCN(CCCn2cnc3c(N4CCN(C5CCCC5)CC4)nc(NCc4ccc(F)cc4)nc32)CC1`, for which the results for the IC50 in test [1] and in test [2] were 0.25 µM and > 30 µM, respectively. For `CCN1CCN(CCCn2cnc3c(N4CCN(C(=O)c5ccccc5)CC4)nc(N4CCCC4)nc32)CC1`, the IC50 in test [1] and in test [2] was > 30 µM each time. Turning to `CCN1CCN(CCCn2cnc3c(N4CCN(C(=O)C5CCCC5)CC4)nc(NCc4ccc(F)cc4)nc32)CC1`, the concentration for half-maximal inhibition (IC50) in test [1] and in test [2] was > 30 µM each time.

Consider `CCN1CCN(CCCn2cnc3c(N4CCN(C(=O)c5ccccc5)CC4)nc(N)nc32)CC1`, for which the half-inhibitory concentration (IC50) in test [1] and in test [2] was > 30 µM throughout. For `COc1ccc(CNc2nc(N3CCN(C4CCCC4)CC3)c3ncn(CCCN4CCCC4)c3n2)cc1`, the IC50 in test [2] was determined as 11.6 µM. For the compound `Nc1nc(N2CCN(C3CCCC3)CC2)c2ncn(CCCN3CCCC3)c2n1`, the figures for the IC50 in test [1] and in test [2] were 0.12 µM and 4.88 µM, respectively. Consider `CCN1CCN(CCCn2cnc3c(N4CCN(CC)CC4)nc(NCc4ccccc4)nc32)CC1`, for which the IC50 in test [2] was found to be 7.59 µM. Take `CCN1CCN(CCCn2cnc3c(N4CCN(CC)CC4)nc(NCc4ccc(F)cc4)nc32)CC1`: in test [2], the IC50 is 10.1 µM. For `CCN1CCN(CCCn2cnc3c(N4CCN(CC)CC4)nc(NCc4ccc(OC)cc4)nc32)CC1`, the values for the half-inhibitory concentration (IC50) in test [1] and in test [2] were 0.2 µM and 5.22 µM, respectively. Consider `CCN1CCN(CCCn2cnc3c(N4CCN(C(=O)C5CCCC5)CC4)nc(N)nc32)CC1`, for which the concentration for half-maximal inhibition (IC50) in test [1] and in test [2] was > 30 µM in each case. Take `CCN1CCN(CCCn2cnc3c(N4CCN(CC)CC4)nc(NC(=O)c4ccccc4)nc32)CC1`: the IC50 in test [2] was determined as 7.74 µM.

Take `CCN1CCN(CCCn2cnc3c(N4CCN(C5CCCC5)CC4)nc(NCc4ccc(OC)cc4)nc32)CC1`: the IC50 in test [2] is > 30 µM. Take `CCN1CCN(CCCn2cnc3c(N4CCN(C(=O)c5ccccc5)CC4)nc(NCc4ccc(OC)cc4)nc32)CC1`: the 50% inhibitory concentration (IC50) in test [1] and in test [2] was > 30 µM throughout. For the compound `CCN1CCN(CCCn2cnc3c(N4CCN(C(=O)C5CCCC5)CC4)nc(NCc4ccc(OC)cc4)nc32)CC1`, the concentration for half-maximal inhibition (IC50) in test [1] and in test [2] was > 30 µM throughout.
